According to ChEMBL document CHEMBL5257023, “Identification of leads for antiproliferative activity on MDA-MB-435 human breast cancer cells through pharmacophore and CYP1A1-mediated metabolism” (Eur J Med Chem, 2016):

Legend:
MDA-MB-435 [1] = assay: Anticancer activity against human MDA-MB-435 cells assessed as cell growth at 100 uM incubated for 48 hrs by SRB assay; assay type: functional; conditions: read-out: Activity
MDA-MB-468 [2] = assay: Anticancer activity against human MDA-MB-468 cells assessed as cell growth at 100 uM incubated for 48 hrs by SRB assay; assay type: functional; conditions: read-out: Activity
CYP1A1 [3] = target: T1, CYP1A1 (Homo sapiens, UniProt P04798); assay: Inhibition of recombinant CYP1A1 (unknown origin) assessed as residual enzyme activity using 7-ethoxyresorufin as substrate at 0.1 uM incubated for 15 mins by resorufin dye based spectrofluorimetry (reference value: 100%); assay type: ADME; conditions: recombinant CYP1A1, probe 7-ethoxyresorufin, read-out: Activity
T1 sequence (P04798 whole entry): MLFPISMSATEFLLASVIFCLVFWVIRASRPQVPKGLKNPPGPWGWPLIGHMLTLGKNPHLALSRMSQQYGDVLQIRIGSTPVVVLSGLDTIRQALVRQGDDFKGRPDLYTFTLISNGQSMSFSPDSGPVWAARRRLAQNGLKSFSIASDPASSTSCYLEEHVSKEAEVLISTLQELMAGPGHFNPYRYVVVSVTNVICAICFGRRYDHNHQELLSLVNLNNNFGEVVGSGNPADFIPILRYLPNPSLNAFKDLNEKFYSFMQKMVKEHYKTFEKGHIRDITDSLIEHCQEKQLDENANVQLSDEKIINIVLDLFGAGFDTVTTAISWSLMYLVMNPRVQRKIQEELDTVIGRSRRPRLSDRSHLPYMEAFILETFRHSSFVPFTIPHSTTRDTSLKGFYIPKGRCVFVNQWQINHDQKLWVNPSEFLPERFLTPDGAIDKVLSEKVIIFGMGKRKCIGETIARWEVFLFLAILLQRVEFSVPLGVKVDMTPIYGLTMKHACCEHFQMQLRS

Cytochrome P450 1A1 = target: T2, Cytochrome P450 1A1 (Homo sapiens, UniProt P04798); assay: Inhibition of recombinant CYP1A1 (unknown origin) assessed as decrease in EROD activity using 7-ethoxyresorufin as substrate incubated for 15 mins by resorufin dye based spectrofluorimetry; assay type: ADME
T2 sequence (P04798 whole entry): T1 sequence (P04798 whole entry)

CYP1A1 [4] = target: T1, CYP1A1; assay: Inhibition of recombinant CYP1A1 (unknown origin) assessed as residual enzyme activity using 7-ethoxyresorufin as substrate at 100 uM incubated for 15 mins by resorufin dye based spectrofluorimetry (reference value: 100%); assay type: ADME; conditions: recombinant CYP1A1, probe 7-ethoxyresorufin, read-out: Activity
NCI-H226 [5] = assay: Anticancer activity against human NCI-H226 cells assessed as cell growth at 0.1 uM incubated for 48 hrs by SRB assay; assay type: functional; conditions: read-out: Activity
NCI-H226 [6] = assay: Anticancer activity against human NCI-H226 cells assessed as cell growth at 100 uM incubated for 48 hrs by SRB assay; assay type: functional; conditions: read-out: Activity
CYP1A1 [7] = target: T1, CYP1A1; assay: Inhibition of recombinant CYP1A1 (unknown origin) assessed as residual enzyme activity using 7-ethoxyresorufin as substrate at 1 uM incubated for 15 mins by resorufin dye based spectrofluorimetry (reference value: 100%); assay type: ADME; conditions: recombinant CYP1A1, probe 7-ethoxyresorufin, read-out: Activity
CYP1A1 [8] = target: T1, CYP1A1; assay: Inhibition of recombinant CYP1A1 (unknown origin) assessed as residual enzyme activity using 7-ethoxyresorufin as substrate at 10 uM incubated for 15 mins by resorufin dye based spectrofluorimetry (reference value: 100%); assay type: ADME; conditions: recombinant CYP1A1, probe 7-ethoxyresorufin, read-out: Activity
MDA-MB-435 [9] = assay: Anticancer activity against human MDA-MB-435 cells assessed as cell growth at 0.1 uM incubated for 48 hrs by SRB assay; assay type: functional; conditions: read-out: Activity
MDA-MB-435 [10] = assay: Anticancer activity against human MDA-MB-435 cells assessed as cell growth at 1 uM incubated for 48 hrs by SRB assay; assay type: functional; conditions: read-out: Activity
MCF7 [11] = assay: Anticancer activity against human MCF7 cells assessed as cell growth at 10 uM incubated for 48 hrs by SRB assay; assay type: functional; conditions: read-out: Activity
MCF7 [12] = assay: Anticancer activity against human MCF7 cells assessed as cell growth at 1 uM incubated for 48 hrs by SRB assay; assay type: functional; conditions: read-out: Activity
CYP1A1 [13] = target: T1, CYP1A1; assay: Inhibition of recombinant CYP1A1 (unknown origin) assessed as residual enzyme activity using 7-ethoxyresorufin as substrate at 50 uM incubated for 15 mins by resorufin dye based spectrofluorimetry (reference value: 100%); assay type: ADME; conditions: recombinant CYP1A1, probe 7-ethoxyresorufin, read-out: Activity
NCI-H226 [14] = assay: Anticancer activity against human NCI-H226 cells assessed as cell growth at 1 uM incubated for 48 hrs by SRB assay; assay type: functional; conditions: read-out: Activity
MDA-MB-468 [15] = assay: Anticancer activity against human MDA-MB-468 cells assessed as cell growth at 10 uM incubated for 48 hrs by SRB assay; assay type: functional; conditions: read-out: Activity
MDA-MB-435 [16] = assay: Anticancer activity against human MDA-MB-435 cells assessed as cell growth at 10 uM incubated for 48 hrs by SRB assay; assay type: functional; conditions: read-out: Activity
MCF7 [17] = assay: Anticancer activity against human MCF7 cells assessed as inhibition of cell growth incubated for 48 hrs by SRB assay; assay type: functional; conditions: for CC50: read-out: LC50 (the source's name)
MDA-MB-468 [18] = assay: Anticancer activity against human MDA-MB-468 cells assessed as cell growth at 1 uM incubated for 48 hrs by SRB assay; assay type: functional; conditions: read-out: Activity
NCI-H226 [19] = assay: Anticancer activity against human NCI-H226 cells assessed as cell growth at 10 uM incubated for 48 hrs by SRB assay; assay type: functional; conditions: read-out: Activity
CYP1A1 [20] = target: T1, CYP1A1; assay: Inhibition of recombinant CYP1A1 (unknown origin) assessed as residual enzyme activity using 7-ethoxyresorufin as substrate at 0.01 uM incubated for 15 mins by resorufin dye based spectrofluorimetry (reference value: 100%); assay type: ADME; conditions: recombinant CYP1A1, probe 7-ethoxyresorufin, read-out: Activity
MDA-MB-435 [21] = assay: Anticancer activity against human MDA-MB-435 cells assessed as inhibition of cell growth incubated for 48 hrs by SRB assay; assay type: functional
MDA-MB-468 [22] = assay: Anticancer activity against human MDA-MB-468 cells assessed as inhibition of cell growth incubated for 48 hrs by SRB assay; assay type: functional; conditions: for CC50: read-out: LC50 (the source's name)
MDA-MB-468 [23] = assay: Anticancer activity against human MDA-MB-468 cells assessed as cell growth at 0.1 uM incubated for 48 hrs by SRB assay; assay type: functional; conditions: read-out: Activity
MCF7 [24] = assay: Anticancer activity against human MCF7 cells assessed as cell growth at 0.1 uM incubated for 48 hrs by SRB assay; assay type: functional; conditions: read-out: Activity
MCF7 [25] = assay: Anticancer activity against human MCF7 cells assessed as cell growth at 100 uM incubated for 48 hrs by SRB assay; assay type: functional; conditions: read-out: Activity
NCI-H226 [26] = assay: Anticancer activity against human NCI-H226 cells assessed as inhibition of cell growth incubated for 48 hrs by SRB assay; assay type: functional
CYP1A1 [27] = target: T1, CYP1A1; assay: Inhibition of recombinant CYP1A1 (unknown origin) assessed as residual enzyme activity using 7-ethoxyresorufin as substrate at 5 uM incubated for 15 mins by resorufin dye based spectrofluorimetry (reference value: 100%); assay type: ADME; conditions: recombinant CYP1A1, probe 7-ethoxyresorufin, read-out: Activity

Row | Structure (SMILES) | growth at 100 µM (MDA-MB-435 [1]) [%] | growth at 100 µM (MDA-MB-468 [2]) [%] | activity at 0.25 h, 0.1 µM (CYP1A1 [3]) [%] | IC50 (Cytochrome P450 1A1) [µM] | activity at 0.25 h, 100 µM (CYP1A1 [4]) [%] | growth at 0.1 µM (NCI-H226 [5]) [%] | growth at 100 µM (NCI-H226 [6]) [%] | growth at 0.1 µM (MDA-MB-435 [9]) [%] | growth at 1 µM (MDA-MB-435 [10]) [%] | growth at 10 µM (MCF7 [11]) [%] | growth at 1 µM (MCF7 [12]) [%] | activity at 0.25 h, 50 µM (CYP1A1 [13]) [%] | growth at 1 µM (NCI-H226 [14]) [%] | growth at 10 µM (MDA-MB-468 [15]) [%] | growth at 10 µM (MDA-MB-435 [16]) [%] | GI50 (MCF7 [17]) [µM] | TGI (MCF7 [17]) [µM] | CC50 (MCF7 [17]) [µM] | growth at 1 µM (MDA-MB-468 [18]) [%] | growth at 10 µM (NCI-H226 [19]) [%] | other results
1 | Cc1cc(C)n(C(=O)CCn2nc(C)c(Cl)c2C)n1 | 84.9 | 68.3 | 62.2 | 10 | 35.1 | 80.4 | 55.6 | 100 | 100 | 74 | 78.7 | 36.4 | 77.6 | 97.7 | 100 | 54.8 | > 100 | > 100 | 100 | 71.4 | activity at 0.25 h, 1 µM (CYP1A1 [7]): 52.9%; activity at 0.25 h, 10 µM (CYP1A1 [8]): 50.6%; activity at 0.25 h, 0.01 µM (CYP1A1 [20]): 79.9%; GI50 (MDA-MB-435 [21]): > 100 µM; LC50 (MDA-MB-435 [21]): > 100 µM; TGI (MDA-MB-435 [21]): > 100 µM; GI50 (MDA-MB-468 [22]): > 100 µM; TGI (MDA-MB-468 [22]): > 100 µM; CC50 (MDA-MB-468 [22]): > 100 µM; growth at 0.1 µM (MDA-MB-468 [23]): 100%; growth at 0.1 µM (MCF7 [24]): 85.9%; growth at 100 µM (MCF7 [25]): 22.9%; GI50 (NCI-H226 [26]): > 100 µM; LC50 (concentration killing 50% of cells) (NCI-H226 [26]): > 100 µM; TGI (NCI-H226 [26]): > 100 µM
2 | Cc1cc(C)n2ncc(C(=O)NCc3ccc(Cl)cc3)c2n1 | 70 | 23.6 | 89.8 | 10 | 50.8 | 90.9 | 58.3 | 100 | 99.9 | 80.4 | 88.2 | 64.7 | 87.8 | 77.6 | 98.1 | 57.7 | > 100 | > 100 | 82.6 | 82.6 | activity at 0.25 h, 5 µM (CYP1A1 [27]): 71.8%; activity at 0.25 h, 0.01 µM (CYP1A1 [20]): 98.7%; GI50 (MDA-MB-435 [21]): > 100 µM; LC50 (MDA-MB-435 [21]): > 100 µM; TGI (MDA-MB-435 [21]): > 100 µM; GI50 (MDA-MB-468 [22]): 58.5 µM; TGI (MDA-MB-468 [22]): > 100 µM; CC50 (MDA-MB-468 [22]): > 100 µM; growth at 0.1 µM (MDA-MB-468 [23]): 90.9%; growth at 0.1 µM (MCF7 [24]): 90.1%; growth at 100 µM (MCF7 [25]): 20.6%; GI50 (NCI-H226 [26]): > 100 µM; LC50 (concentration killing 50% of cells) (NCI-H226 [26]): > 100 µM; TGI (NCI-H226 [26]): > 100 µM
3 | Cc1ccc(-c2cc3cc(F)ccc3[nH]2)cc1N | 23.1 | 96.8 | 52.6 | 0.13 | 8.54 | 100 | 90 | 47.8 | 40 | 70.9 | 73.1 | 10.6 | 100 | 99.8 | 30.6 | > 100 | > 100 | > 100 | 100 | 98.9 | activity at 0.25 h, 1 µM (CYP1A1 [7]): 35.3%; activity at 0.25 h, 10 µM (CYP1A1 [8]): 12.8%; activity at 0.25 h, 0.01 µM (CYP1A1 [20]): 96.8%; GI50 (MDA-MB-435 [21]): < 0.1 µM; LC50 (MDA-MB-435 [21]): > 100 µM; TGI (MDA-MB-435 [21]): > 100 µM; GI50 (MDA-MB-468 [22]): > 100 µM; TGI (MDA-MB-468 [22]): > 100 µM; CC50 (MDA-MB-468 [22]): > 100 µM; growth at 0.1 µM (MDA-MB-468 [23]): 100%; growth at 0.1 µM (MCF7 [24]): 100%; growth at 100 µM (MCF7 [25]): 67.1%; GI50 (NCI-H226 [26]): > 100 µM; LC50 (concentration killing 50% of cells) (NCI-H226 [26]): > 100 µM; TGI (NCI-H226 [26]): > 100 µM
